PubChem BioAssay AID256 (DTP/NCI, 2004)
Values joined by “and” are separate entries in the source; they are usually repeats but may differ in a detail not shown here. Identical values can stand only once. Inconclusive results and toxic doses are left out.

Test system: CD2F1 mice, L1210 leukemia ip, survival T/C
Assay: NCI In Vivo Anticancer Drug Screen. Data for tumor model L1210 Leukemia (intraperitoneal) in CD2F1 (CDF1) mice
Settings: higher = longer survival
Summary of the method: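 Antitumor effect is scored in animals hosting a serially transplanted tumor. Values compare compound-dosed animals against vehicle-only controls as a simple quotient.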

[1] = endpoint: mean survival time, dose: 100.0 mg/kg/injection, schedule: Q01DX001 (ip), vehicle: saline with Tween-80
[2] = endpoint: mean survival time, dose: 200.0 mg/kg/injection, schedule: Q01DX001 (ip), vehicle: saline with Tween-80
[3] = endpoint: mean survival time, dose: 400.0 mg/kg/injection, schedule: Q01DX001 (ip), vehicle: saline with Tween-80
[4] = endpoint: mean survival time, dose: 100.0 mg/kg/injection, schedule: Q04DX003 (ip), vehicle: saline
[5] = endpoint: mean survival time, dose: 200.0 mg/kg/injection, schedule: Q04DX003 (ip), vehicle: saline
[6] = endpoint: mean survival time, dose: 400.0 mg/kg/injection, schedule: Q04DX003 (ip), vehicle: saline
[7] = endpoint: mean survival time, dose: 100.0 mg/kg/injection, schedule: Q04DX003 (ip), vehicle: saline with Tween-80
[8] = endpoint: mean survival time, dose: 200.0 mg/kg/injection, schedule: Q04DX003 (ip), vehicle: saline with Tween-80
[9] = endpoint: mean survival time, dose: 400.0 mg/kg/injection, schedule: Q04DX003 (ip), vehicle: saline with Tween-80
[10] = endpoint: mean survival time, dose: 100.0 mg/kg/injection, schedule: Q01DX009 (ip), vehicle: saline with Tween-80

CC[C@](O)(C(=O)O)c1cc2n(c(=O)c1CO)Cc1cc3ccccc3nc1-2
T/C (endpoint: mean survival time, dose: 1.0 mg/kg/injection, schedule: Q04DX003 (ip), vehicle: water): 100 % of control
T/C (endpoint: mean survival time, dose: 2.0 mg/kg/injection, schedule: Q04DX003 (ip), vehicle: water): 107 % of control
T/C (endpoint: mean survival time, dose: 4.0 mg/kg/injection, schedule: Q04DX003 (ip), vehicle: water): 108 % of control
T/C (endpoint: mean survival time, dose: 12.5 mg/kg/injection, schedule: Q04DX003 (ip), vehicle: water): 159 % of control
T/C (endpoint: mean survival time, dose: 16.0 mg/kg/injection, schedule: Q04DX003 (ip), vehicle: water): 175 % of control
T/C (endpoint: mean survival time, dose: 50.0 mg/kg/injection, schedule: Q04DX003 (ip), vehicle: water): 113 % of control and 119 % of control
T/C (endpoint: mean survival time, dose: 100.0 mg/kg/injection, schedule: Q04DX003 (ip), vehicle: water): 93 % of control
T/C (endpoint: median survival time, dose: 3.75 mg/kg/injection, schedule: Q04HX004 (iv), vehicle: water): 115 % of control
T/C (endpoint: median survival time, dose: 5.0 mg/kg/injection, schedule: Q04DX002 (ip), vehicle: water): 117 % of control and 121 % of control and 123 % of control
T/C (endpoint: median survival time, dose: 5.0 mg/kg/injection, schedule: Q04DX002 (iv), vehicle: water): 115 % of control
T/C (endpoint: median survival time, dose: 6.2 mg/kg/injection, schedule: Q04HX004 (iv), vehicle: water): 167 % of control
T/C (endpoint: median survival time, dose: 6.25 mg/kg/injection, schedule: Q04HX004 (iv), vehicle: saline): 177 % of control
T/C (endpoint: median survival time, dose: 6.25 mg/kg/injection, schedule: Q04HX004 (iv), vehicle: water): 162 % of control and 178 % of control
T/C (endpoint: median survival time, dose: 7.5 mg/kg/injection, schedule: Q04HX004 (iv), vehicle: other): 170 % of control
T/C (endpoint: median survival time, dose: 7.5 mg/kg/injection, schedule: Q04HX004 (iv), vehicle: water): 166 % of control and 180 % of control
T/C (endpoint: median survival time, dose: 12.5 mg/kg/injection, schedule: Q04DX003 (ip), vehicle: clinical formulation): 178 % of control
T/C (endpoint: median survival time, dose: 12.5 mg/kg/injection, schedule: Q04DX003 (ip), vehicle: saline): 167 % of control
T/C (endpoint: median survival time, dose: 12.5 mg/kg/injection, schedule: Q04HX004 (iv), vehicle: saline): 160 % of control and 190 % of control
T/C (endpoint: median survival time, dose: 12.5 mg/kg/injection, schedule: Q04HX004 (iv), vehicle: water): 177 % of control and 193 % of control and 196 % of control
T/C (endpoint: median survival time, dose: 15.0 mg/kg/injection, schedule: Q04HX004 (iv), vehicle: dextrose): 195 % of control
T/C (endpoint: median survival time, dose: 15.0 mg/kg/injection, schedule: Q04HX004 (iv), vehicle: other): 192 % of control
T/C (endpoint: median survival time, dose: 15.0 mg/kg/injection, schedule: Q04HX004 (iv), vehicle: water): 200 % of control and 208 % of control
T/C (endpoint: median survival time, dose: 20.0 mg/kg/injection, schedule: Q04DX002 (ip), vehicle: saline): 151 % of control and 168 % of control (2×)
T/C (endpoint: median survival time, dose: 25.0 mg/kg/injection, schedule: Q04DX002 (ip), vehicle: water): 156 % of control and 195 % of control
T/C (endpoint: median survival time, dose: 25.0 mg/kg/injection, schedule: Q04DX003 (ip), vehicle: clinical formulation): 229 % of control
T/C (endpoint: median survival time, dose: 25.0 mg/kg/injection, schedule: Q04DX003 (ip), vehicle: saline): 218 % of control
T/C (endpoint: median survival time, dose: 25.0 mg/kg/injection, schedule: Q04HX004 (iv), vehicle: saline): 198 % of control and 226 % of control
T/C (endpoint: median survival time, dose: 25.0 mg/kg/injection, schedule: Q04HX004 (iv), vehicle: water): 206 % of control and 212 % of control and 230 % of control
T/C (endpoint: median survival time, dose: 30.0 mg/kg/injection, schedule: Q04HX004 (iv), vehicle: dextrose): 227 % of control
T/C (endpoint: median survival time, dose: 30.0 mg/kg/injection, schedule: Q04HX004 (iv), vehicle: other): 219 % of control
T/C (endpoint: median survival time, dose: 30.0 mg/kg/injection, schedule: Q04HX004 (iv), vehicle: water): 220 % of control and 227 % of control
T/C (endpoint: median survival time, dose: 40.0 mg/kg/injection, schedule: Q04DX002 (ip), vehicle: saline): 181 % of control and 185 % of control and 200 % of control
T/C (endpoint: median survival time, dose: 40.0 mg/kg/injection, schedule: Q04DX002 (iv), vehicle: water): 183 % of control
T/C (endpoint: median survival time, dose: 40.0 mg/kg/injection, schedule: Q04HX004 (iv), vehicle: other): 247 % of control
T/C (endpoint: median survival time, dose: 40.0 mg/kg/injection, schedule: Q04HX004 (iv), vehicle: water): 226 % of control and 253 % of control
T/C (endpoint: median survival time, dose: 50.0 mg/kg/injection, schedule: Q04DX002 (ip), vehicle: water): 173 % of control and 217 % of control
T/C (endpoint: median survival time, dose: 50.0 mg/kg/injection, schedule: Q04DX003 (ip), vehicle: saline): 263 % of control
T/C (endpoint: median survival time, dose: 50.0 mg/kg/injection, schedule: Q04HX004 (iv), vehicle: saline): 211 % of control and 256 % of control
T/C (endpoint: median survival time, dose: 50.0 mg/kg/injection, schedule: Q04HX004 (iv), vehicle: water): 225 % of control and 261 % of control and 101 % of control
T/C (endpoint: median survival time, dose: 80.0 mg/kg/injection, schedule: Q04DX002 (ip), vehicle: saline): 205 % of control and 216 % of control and 227 % of control
T/C (endpoint: median survival time, dose: 80.0 mg/kg/injection, schedule: Q04DX002 (iv), vehicle: water): 252 % of control
T/C (endpoint: median survival time, dose: 100.0 mg/kg/injection, schedule: Q04DX002 (ip), vehicle: water): 204 % of control and 233 % of control
T/C (endpoint: median survival time, dose: 100.0 mg/kg/injection, schedule: Q04DX003 (ip), vehicle: saline): 108 % of control

CCCCC(CCC)OC(=O)Nc1cccc2ccccc12 (configuration not stated)
T/C [1]: 93 % of control
T/C [2]: 93 % of control
T/C [3]: 93 % of control

CC1=C2CC3CCC(C)C2(CC1)C3(C)C (configuration not stated)
T/C (endpoint: mean survival time, dose: 100.0 mg/kg/injection, schedule: Q04DX002 (ip), vehicle: Klucel (hydroxypropylcellulose) (HPC)): 111 % of control
T/C [4]: 96 % of control
T/C (endpoint: mean survival time, dose: 200.0 mg/kg/injection, schedule: Q04DX002 (ip), vehicle: Klucel (hydroxypropylcellulose) (HPC)): 96 % of control
T/C [5]: 98 % of control
T/C (endpoint: mean survival time, dose: 400.0 mg/kg/injection, schedule: Q04DX002 (ip), vehicle: Klucel (hydroxypropylcellulose) (HPC)): 96 % of control
T/C [6]: 106 % of control

CN1CCCN(C)C1c1ccccc1
T/C (endpoint: mean survival time, dose: 25.0 mg/kg/injection, schedule: Q01DX009 (ip), vehicle: saline): 97 % of control
T/C (endpoint: mean survival time, dose: 50.0 mg/kg/injection, schedule: Q01DX009 (ip), vehicle: saline): 94 % of control
T/C (endpoint: mean survival time, dose: 100.0 mg/kg/injection, schedule: Q01DX009 (ip), vehicle: saline): 89 % of control
T/C [4]: 104 % of control

CC(C)C1NC(=O)C2CCCN2C1=O (configuration not stated)
T/C (endpoint: mean survival time, dose: 100.0 mg/kg/injection, schedule: Q01DX009 (ip), vehicle: saline sonified): 98 % of control
T/C (endpoint: mean survival time, dose: 200.0 mg/kg/injection, schedule: Q01DX009 (ip), vehicle: saline sonified): 93 % of control
T/C (endpoint: mean survival time, dose: 400.0 mg/kg/injection, schedule: Q01DX009 (ip), vehicle: saline sonified): 96 % of control

CCCN(CCC)CC(=O)c1ccc2cc(Br)c3ccccc3c2c1
T/C [4]: 92 % of control
T/C [5]: 91 % of control
T/C [6]: 89 % of control

ClC(Cl)(Cl)c1ccc(C(SCc2ccccc2)SCc2ccccc2)cc1
T/C [1]: 89 % of control
T/C [2]: 89 % of control
T/C [3]: 97 % of control

CC(=O)OC1C2CCC(C2)C1C (configuration not stated)
T/C [7]: 95 % of control
T/C [8]: 92 % of control
T/C [9]: 92 % of control

CC(=O)c1cc([N+](=O)[O-])ccc1O
T/C (endpoint: mean survival time, dose: 25.0 mg/kg/injection, schedule: Q01DX009 (ip), vehicle: saline with Tween-80): 90 % of control
T/C (endpoint: mean survival time, dose: 50.0 mg/kg/injection, schedule: Q01DX009 (ip), vehicle: saline with Tween-80): 90 % of control
T/C [10]: 88 % of control
T/C [7]: 97 % of control

O=C(CC(=O)c1ccccc1F)Nc1ccc([N+](=O)[O-])cc1
T/C [10]: 90 % of control
T/C [7]: 96 % of control
T/C (endpoint: mean survival time, dose: 200.0 mg/kg/injection, schedule: Q01DX009 (ip), vehicle: saline with Tween-80): 93 % of control
T/C [8]: 95 % of control
T/C (endpoint: mean survival time, dose: 400.0 mg/kg/injection, schedule: Q01DX009 (ip), vehicle: saline with Tween-80): 88 % of control
T/C [9]: 97 % of control

CC1CCCCCC(=O)c2c(O)cc(O)cc2CC(=O)O1 (configuration not stated)
T/C (endpoint: mean survival time, dose: 100.0 mg/kg/injection, schedule: Q01DX001 (ip), vehicle: other): 95 % of control
T/C (endpoint: mean survival time, dose: 200.0 mg/kg/injection, schedule: Q01DX001 (ip), vehicle: other): 118 % of control
T/C (endpoint: mean survival time, dose: 400.0 mg/kg/injection, schedule: Q01DX001 (ip), vehicle: other): 100 % of control

CCOc1c[n+](C)c(C)s1
T/C (endpoint: mean survival time, dose: 50.0 mg/kg/injection, schedule: Q01DX001 (ip), vehicle: carboxymethylcellulose (CMC)): 94 % of control
T/C (endpoint: mean survival time, dose: 100.0 mg/kg/injection, schedule: Q01DX001 (ip), vehicle: carboxymethylcellulose (CMC)): 92 % of control
T/C (endpoint: mean survival time, dose: 200.0 mg/kg/injection, schedule: Q01DX001 (ip), vehicle: carboxymethylcellulose (CMC)): 103 % of control

N#CCCCSc1ccccc1
T/C (endpoint: mean survival time, dose: 100.0 mg/kg/injection, schedule: Q01DX001 (ip), vehicle: saline): 96 % of control
T/C (endpoint: mean survival time, dose: 200.0 mg/kg/injection, schedule: Q01DX001 (ip), vehicle: saline): 106 % of control

O=C1N=c2cc([N+](=O)[O-])c([N+](=O)[O-])cc2=N1
T/C [1]: 97 % of control
T/C [2]: 103 % of control
T/C [3]: 98 % of control

O=C1C(Br)C2CCC1C2C(=O)O (configuration not stated)
T/C [7]: 101 % of control
T/C [8]: 98 % of control
T/C [9]: 98 % of control
